{
  "source": "patent US10787452B2",
  "about": "(Vertex Pharmaceuticals Incorporated, priority 2012, dated 2020)",
  "key": {"full-length ATR": {"target": "full-length ATR (Homo sapiens (Human), UniProt Q13535)", "sequence (Q13535 whole entry)": "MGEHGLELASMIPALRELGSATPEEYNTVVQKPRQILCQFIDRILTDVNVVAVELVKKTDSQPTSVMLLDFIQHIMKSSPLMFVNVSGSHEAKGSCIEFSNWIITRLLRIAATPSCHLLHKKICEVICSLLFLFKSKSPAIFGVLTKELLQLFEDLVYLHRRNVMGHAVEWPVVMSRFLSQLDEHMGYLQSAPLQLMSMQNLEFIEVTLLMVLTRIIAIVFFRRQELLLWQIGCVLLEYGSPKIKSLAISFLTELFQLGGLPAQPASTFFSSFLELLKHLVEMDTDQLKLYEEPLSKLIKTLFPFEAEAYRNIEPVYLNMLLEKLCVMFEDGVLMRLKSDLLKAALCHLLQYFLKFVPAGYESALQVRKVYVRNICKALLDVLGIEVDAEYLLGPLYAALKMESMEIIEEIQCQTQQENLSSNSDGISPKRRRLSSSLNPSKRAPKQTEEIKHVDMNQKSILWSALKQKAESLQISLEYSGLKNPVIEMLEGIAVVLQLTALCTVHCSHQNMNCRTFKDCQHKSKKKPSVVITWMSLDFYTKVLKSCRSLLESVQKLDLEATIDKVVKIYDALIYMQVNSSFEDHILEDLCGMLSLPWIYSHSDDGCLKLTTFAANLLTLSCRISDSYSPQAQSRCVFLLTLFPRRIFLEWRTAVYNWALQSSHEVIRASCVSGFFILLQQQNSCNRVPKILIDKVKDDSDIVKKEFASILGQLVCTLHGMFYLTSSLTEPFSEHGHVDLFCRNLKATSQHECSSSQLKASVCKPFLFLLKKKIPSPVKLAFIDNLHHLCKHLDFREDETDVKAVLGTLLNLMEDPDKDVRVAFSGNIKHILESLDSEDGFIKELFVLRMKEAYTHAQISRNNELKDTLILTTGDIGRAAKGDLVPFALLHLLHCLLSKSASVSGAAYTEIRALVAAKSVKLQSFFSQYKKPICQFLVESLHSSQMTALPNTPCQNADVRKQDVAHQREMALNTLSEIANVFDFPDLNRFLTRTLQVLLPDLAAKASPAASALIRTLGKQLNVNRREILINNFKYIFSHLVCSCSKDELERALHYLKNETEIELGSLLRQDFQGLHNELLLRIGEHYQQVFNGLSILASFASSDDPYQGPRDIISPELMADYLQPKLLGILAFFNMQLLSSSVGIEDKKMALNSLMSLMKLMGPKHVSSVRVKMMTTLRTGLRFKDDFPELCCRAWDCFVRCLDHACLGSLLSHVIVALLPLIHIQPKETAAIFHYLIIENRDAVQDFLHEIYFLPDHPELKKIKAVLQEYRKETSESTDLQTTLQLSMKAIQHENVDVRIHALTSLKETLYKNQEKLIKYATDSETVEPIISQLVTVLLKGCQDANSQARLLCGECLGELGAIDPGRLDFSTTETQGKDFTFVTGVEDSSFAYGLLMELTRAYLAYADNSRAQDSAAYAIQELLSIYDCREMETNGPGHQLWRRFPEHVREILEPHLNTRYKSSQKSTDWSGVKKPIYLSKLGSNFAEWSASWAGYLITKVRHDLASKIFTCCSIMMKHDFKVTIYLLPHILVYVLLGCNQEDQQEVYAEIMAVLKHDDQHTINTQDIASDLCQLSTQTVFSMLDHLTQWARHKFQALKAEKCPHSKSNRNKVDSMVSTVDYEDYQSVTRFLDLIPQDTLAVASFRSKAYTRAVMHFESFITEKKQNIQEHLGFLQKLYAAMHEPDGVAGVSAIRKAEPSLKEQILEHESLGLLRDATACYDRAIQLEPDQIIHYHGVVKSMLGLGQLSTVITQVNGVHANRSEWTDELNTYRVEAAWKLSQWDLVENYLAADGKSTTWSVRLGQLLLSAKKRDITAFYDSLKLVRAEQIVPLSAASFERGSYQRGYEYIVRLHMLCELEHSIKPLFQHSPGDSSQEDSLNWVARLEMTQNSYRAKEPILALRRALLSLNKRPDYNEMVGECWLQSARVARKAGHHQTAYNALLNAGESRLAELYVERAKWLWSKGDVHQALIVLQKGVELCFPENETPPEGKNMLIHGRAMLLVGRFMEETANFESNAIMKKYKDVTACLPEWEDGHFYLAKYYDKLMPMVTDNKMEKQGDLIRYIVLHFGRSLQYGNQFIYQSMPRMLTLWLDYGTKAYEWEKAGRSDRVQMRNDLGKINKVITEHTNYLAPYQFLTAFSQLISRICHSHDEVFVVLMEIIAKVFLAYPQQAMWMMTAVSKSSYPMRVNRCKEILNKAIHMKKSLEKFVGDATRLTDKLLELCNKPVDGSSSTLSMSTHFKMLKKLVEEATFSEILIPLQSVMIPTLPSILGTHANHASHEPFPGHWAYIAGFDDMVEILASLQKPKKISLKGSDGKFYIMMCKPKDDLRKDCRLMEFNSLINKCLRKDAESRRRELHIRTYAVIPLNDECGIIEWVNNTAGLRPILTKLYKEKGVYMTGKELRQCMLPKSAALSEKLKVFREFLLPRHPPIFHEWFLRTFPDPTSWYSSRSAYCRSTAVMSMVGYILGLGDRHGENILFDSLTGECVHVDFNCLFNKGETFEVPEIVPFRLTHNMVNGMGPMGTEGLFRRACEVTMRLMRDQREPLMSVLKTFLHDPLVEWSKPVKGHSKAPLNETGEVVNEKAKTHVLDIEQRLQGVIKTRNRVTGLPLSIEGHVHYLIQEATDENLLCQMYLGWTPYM", "assay": "ATR inhibition assay (radioactive-phosphate incorporation)", "format": "biochemical", "conditions": "5 nM full-length ATR, Ki(app)", "method": "Compounds were screened for their ability to inhibit ATR kinase using a radioactive-phosphate incorporation assay. Assays were carried out in a mixture of 50 mM Tris/HCl (pH 7.5), 10 mM MgCl2 and 1 mM DTT. Final substrate concentrations were 10 μM [y-33P]ATP (3 mCi 33P ATP/mmol ATP, Perkin Elmer) and 800 μM target peptide ([…]) (SEQ ID NO:1).\nAssays were carried out at 25° C. in the presence of 5 nM full-length ATR. An assay stock buffer solution was prepared containing all of the reagents listed above, with the exception of ATP and the test compound of interest. 13.5 μL of the stock solution was placed in a 96 well plate followed by addition of 2 μL of DMSO stock containing serial dilutions of the test compound (typically starting from a final concentration of 15 μM with 3-fold serial dilutions) in duplicate (final DMSO concentration 7%). The plate was pre-incubated for 10 minutes at 25° C. and the reaction initiated by addition of 15 μL [γ-33P]ATP (final concentration 10 μM).\nThe reaction was stopped after […] by the addition of 30 μL 0.1M phosphoric acid containing 2 mM ATP. […]\nAfter removing mean background values for all of the data points, Ki(app) data were calculated from non-linear regression analysis of the initial rate data using the Prism software package (GraphPad Prism version 3.0 cx for Macintosh, GraphPad Software, San Diego Calif., USA)."}, "[1]": {"tested_on": "HCT116 colorectal cancer cells", "assay": "Cisplatin sensitization assay (96 h cell viability MTS);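 further: compound concentration needed to lower the Cisplatin-alone IC50 by a set fold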", "format": "cell-based", "conditions": "96 h MTS, compound plus Cisplatin", "in_short": "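Full-matrix combination: compound × cisplatin, 2-fold dilutions from 10 μM top final, co-added; 96 h, 37° C, 5% CO2; MTS read-out after 1 h.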"}},
  "data": [
    {"smiles": "Nc1nn2cc(F)cnc2c1C(=O)Nc1cncc(F)c1N1CCC(C(=O)O)CC1", "note": "[I-N-92, 1-(3-(2-amino-6-fluoropyrazolo[1,5-a]pyrimidine-3-carboxamido)-5-fluoropyridin-4-yl)piperidine-4-carboxylic Acid]", "values": [
      {"measurement": "Ki", "setting": "full-length ATR", "value": "1000 to 5000", "unit": "nM"},
      {"measurement": "Cisplatin Sensitization Assay", "setting": "[1]", "value": "+ (Compounds with a Cisplatin sensitization value >0.2 μM but <5 μM are marked with “+.”)"}
    ]},
    {"smiles": "Nc1nn2cc(F)cnc2c1C(=O)Nc1cnccc1-c1ccc(C(=O)N2CCN3CCC2CC3)cc1F", "note": "[I-C-50, N-(4-(4-(1,4-diazabicyclo[3.2.2]nonane-4-carbonyl)-2-fluorophenyl)pyridin-3-yl)-2-amino-6-fluoropyrazolo[1,5-a]pyrimidine-3-carboxamide]", "values": [
      {"measurement": "Ki", "setting": "full-length ATR", "value": "10 to 1000", "unit": "nM"},
      {"measurement": "Cisplatin Sensitization Assay", "setting": "[1]", "value": "+++ (Compounds with a Cisplatin sensitization value of <0.02 μM are marked with “+++.”)"}
    ]},
    {"smiles": "Nc1nn2cc(F)cnc2c1C(=O)Nc1cncc(F)c1N1CCC(C(=O)NC2COC2)CC1", "note": "[I-G-37, 2-amino-6-fluoro-N-(5-fluoro-4-(4-(oxetan-3-ylcarbamoyl)piperidin-1-yl)pyridin-3-yl)pyrazolo[1,5-a]pyrimidine-3-carboxamide]", "values": [
      {"measurement": "Cisplatin Sensitization Assay", "setting": "[1]", "value": "++ (Compounds with a Cisplatin sensitization value >0.02 μM but <0.2 μM are marked with “++.”)"}
    ]},
    {"smiles": "CN1CCOC2(CCN(c3ccncc3NC(=O)c3c(N)nn4cc(F)cnc34)CC2)C1", "note": "[I-N-183, 2-amino-6-fluoro-N-(4-(4-methyl-1-oxa-4,9-diazaspiro[5.5]undecan-9-yl)pyridin-3-yl)pyrazolo[1,5-a]pyrimidine-3-carboxamide]", "values": [
      {"measurement": "Cisplatin Sensitization Assay", "setting": "[1]", "value": "+++ (Compounds with a Cisplatin sensitization value of <0.02 μM are marked with “+++.”)"}
    ]}
  ]
}
